Experimental data as given in ChEMBL document CHEMBL2406984, “Design and synthesis of hydroxyethylamine (HEA) BACE-1 inhibitors: prime side chromane-containing inhibitors” (Bioorg Med Chem Lett, 2013).

How the values were obtained:
Beta-secretase 1 = Beta-secretase 1 (Homo sapiens, UniProt P56817); assay: Inhibition of recombinant BACE-1 (unknown origin) expressed in Escherichia coli using biotinylated peptide substrate treated 20 mins before substrate addition measured after 3 hrs by fluorescence polarization assay
Sequence of Beta-secretase 1 (P56817 whole entry): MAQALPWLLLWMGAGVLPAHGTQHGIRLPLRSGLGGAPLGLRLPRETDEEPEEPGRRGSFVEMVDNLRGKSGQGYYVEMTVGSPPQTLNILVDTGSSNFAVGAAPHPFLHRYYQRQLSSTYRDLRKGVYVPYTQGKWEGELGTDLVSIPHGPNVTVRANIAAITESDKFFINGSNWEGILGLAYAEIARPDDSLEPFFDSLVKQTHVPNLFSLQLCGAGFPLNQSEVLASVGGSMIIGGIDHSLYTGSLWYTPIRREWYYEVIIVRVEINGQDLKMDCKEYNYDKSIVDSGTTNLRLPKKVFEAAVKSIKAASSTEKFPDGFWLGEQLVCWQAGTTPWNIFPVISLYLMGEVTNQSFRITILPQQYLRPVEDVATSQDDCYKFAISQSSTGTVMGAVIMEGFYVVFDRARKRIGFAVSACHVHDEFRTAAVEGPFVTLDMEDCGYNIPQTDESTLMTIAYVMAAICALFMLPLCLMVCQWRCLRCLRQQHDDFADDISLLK

Cathepsin D = Cathepsin D (Homo sapiens, UniProt P07339); assay: Inhibition of cathepsin-D (unknown origin) using C-terminal biotinylated peptide substrate treated 30 mins before addition of peptide substrate measured after 110 mins by fluorescence polarization assay
Sequence of Cathepsin D (P07339 65-162 limits assumed): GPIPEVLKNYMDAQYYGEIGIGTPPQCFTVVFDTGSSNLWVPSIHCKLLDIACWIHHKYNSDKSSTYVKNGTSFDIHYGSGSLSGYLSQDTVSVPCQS
Sequence of Cathepsin D (P07339 169-412 limits assumed): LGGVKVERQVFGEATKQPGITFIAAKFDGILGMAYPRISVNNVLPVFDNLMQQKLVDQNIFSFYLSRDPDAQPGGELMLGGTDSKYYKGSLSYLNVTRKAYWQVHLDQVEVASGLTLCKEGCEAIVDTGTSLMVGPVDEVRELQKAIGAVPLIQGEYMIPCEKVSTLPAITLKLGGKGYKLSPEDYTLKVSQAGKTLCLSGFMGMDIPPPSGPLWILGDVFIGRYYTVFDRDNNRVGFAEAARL

[1] = Apparent permeability of the compound from apical to basolateral side of MDCK2 cells at 5 uM after 120 mins by LC/MS/MS analysis; assay type: ADME, cell-based, Canis lupus familiaris, MDCK-II; settings: dog, MDCK
[2] = Lipophilicity, log P of the compound; assay type: physicochemical; settings: octanol/water
[3] = Dissociation constant, pKa of the compound; assay type: physicochemical

IC50 (Beta-secretase 1)	IC50 (Cathepsin D)	Papp A→B at 2 h, 5 µM [1]	logP [2]	pKa [3]	Compound
643 nM	68 nM	–	–	–	CC(=O)N[C@@H](Cc1cc(F)cc(F)c1)[C@H](O)CN[C@H]1CCN(C)c2ccc(CC(C)(C)C)cc21
46 nM	12 nM	3 ×10⁻⁶ cm/s	–	–	CC(=O)N[C@@H](Cc1cc(F)cc(F)c1)[C@H](O)CN[C@H]1CCOc2ccc(CC(C)(C)C)cc21
19700 nM	–	–	–	–	CC(=O)N[C@@H](Cc1cc(F)cc(F)c1)[C@H](O)CN[C@H]1COCc2ccc(CC(C)(C)C)cc21
116 nM	2840 nM	0.3 ×10⁻⁶ cm/s	3.2	5.8	CCc1ccc2c(c1)[C@@H](NC[C@@H](O)[C@H](Cc1cc(F)cc(F)c1)NC(C)=O)CS(=O)(=O)C2
127 nM	940 nM	–	–	–	CC(=O)N[C@@H](Cc1cc(F)cc(F)c1)[C@H](O)CN[C@H]1CS(=O)(=O)Cc2ccc(C(C)C)cc21
42 nM	362 nM	–	–	–	CC(=O)N[C@@H](Cc1cc(F)cc(F)c1)[C@H](O)CN[C@H]1CS(=O)(=O)Cc2ccc(CC(C)(C)C)cc21
148 nM	80 nM	8.3 ×10⁻⁶ cm/s	–	–	CC(=O)N[C@@H](Cc1cc(F)cc(F)c1)[C@H](O)CN[C@H]1CCOc2ccc(CC(C)(C)F)cc21
186 nM	144 nM	14.6 ×10⁻⁶ cm/s	–	–	CC(=O)N[C@@H](Cc1cc(F)cc(F)c1)[C@H](O)CN[C@H]1CCOc2ccc(CC(C)(F)F)cc21
60 nM	70 nM	6.4 ×10⁻⁶ cm/s	–	–	CC(=O)N[C@@H](Cc1cc(F)cc(F)c1)[C@H](O)CN[C@H]1CCOc2ccc(CC(C)(C)C#N)cc21
1300 nM	478 nM	–	–	–	CC(=O)N[C@@H](Cc1cc(F)cc(F)c1)[C@H](O)CN[C@H]1CCOc2ccc(CC(C)(C)C(F)F)cc21
414 nM	429 nM	11.2 ×10⁻⁶ cm/s	–	–	CC(=O)N[C@@H](Cc1cc(F)cc(F)c1)[C@H](O)CN[C@H]1CCOc2ccc(OC(C)C)cc21
221 nM	145 nM	–	–	–	CC(=O)N[C@@H](Cc1cc(F)cc(F)c1)[C@H](O)CN[C@H]1CCOc2ccc(OC3CCCC3)cc21
8 nM	18 nM	0.3 ×10⁻⁶ cm/s	–	–	CC(=O)N[C@@H](Cc1cc(F)cc(F)c1)[C@H](O)CN[C@H]1CC(C)(C)Oc2ccc(CC(C)(C)C)cc21
6 nM	1 nM	–	–	–	CCC[C@@]1(C)C[C@H](NC[C@@H](O)[C@H](Cc2cc(F)cc(F)c2)NC(C)=O)c2cc(CC(C)(C)C)ccc2O1
15 nM	2 nM	–	–	–	CCC[C@]1(C)C[C@H](NC[C@@H](O)[C@H](Cc2cc(F)cc(F)c2)NC(C)=O)c2cc(CC(C)(C)C)ccc2O1
27100 nM	22500 nM	–	–	–	CC(=O)N[C@@H](Cc1cc(F)cc(F)c1)[C@H](O)CN[C@H]1CC2(COC2)Oc2ccc(CC(C)(C)C)cc21
9 nM	16 nM	1.7 ×10⁻⁶ cm/s	–	–	CC(=O)N[C@@H](Cc1cc(F)cc(F)c1)[C@H](O)CN[C@H]1CC(C)(C)Oc2ccc(CC(C)(F)F)cc21
6 nM	8 nM	2.5 ×10⁻⁶ cm/s	–	–	CC(=O)N[C@@H](Cc1cc(F)cc(F)c1)[C@H](O)CN[C@H]1CC(C)(C)Oc2ccc(CC(C)(C)C#N)cc21
89 nM	59 nM	1.2 ×10⁻⁶ cm/s	–	–	CC(=O)N[C@@H](Cc1cc(F)cc(F)c1)[C@H](O)CN[C@H]1CC(C)(C)Oc2ccc(OC(F)(F)F)cc21
690 nM	374 nM	1.1 ×10⁻⁶ cm/s	–	–	CC(=O)N[C@@H](Cc1cc(F)cc(F)c1)[C@H](O)CN[C@H]1CC(C)(C)Oc2ccc(OC(C)(C)C)cc21
45 nM	8 nM	0.3 ×10⁻⁶ cm/s	4.9	8.9	CC(=O)N[C@@H](Cc1cc(F)cc(F)c1)[C@H](O)CN[C@H]1CCCc2ccc(CC(C)(C)C)cc21
4700 nM	251 nM	–	–	–	CC(=O)N[C@@H](Cc1cc(F)cc(F)c1)[C@H](O)CN[C@H]1CCCc2ccc(Cc3ccccc3)cc21
538 nM	126 nM	–	–	–	CCc1ccc2c(c1)[C@@H](NC[C@@H](O)[C@H](Cc1cc(F)cc(F)c1)NC(C)=O)CCC2
574 nM	77 nM	–	–	–	CCCCc1ccc2c(c1)[C@@H](NC[C@@H](O)[C@H](Cc1cc(F)cc(F)c1)NC(C)=O)CCC2
93 nM	–	–	–	–	CC(=O)N[C@@H](Cc1cc(F)cc(F)c1)[C@H](O)CN[C@H]1CCCc2ccc(CC(C)C)cc21
378 nM	74 nM	–	–	–	CC(=O)N[C@@H](Cc1cc(F)cc(F)c1)[C@H](O)CN[C@H]1CCCc2ccc(C(C)(C)C)cc21
1320 nM	286 nM	11 ×10⁻⁶ cm/s	–	–	CC(=O)N[C@@H](Cc1cc(F)cc(F)c1)[C@H](O)CN[C@H]1CCOc2ccc(OC3CCCO3)cc21 (mixture of isomers)
858 nM	255 nM	7.1 ×10⁻⁶ cm/s	–	–	CC(=O)N[C@@H](Cc1cc(F)cc(F)c1)[C@H](O)CN[C@H]1CCOc2ccc(OC3CCOC3)cc21 (mixture of isomers)
9 nM	5 nM	–	–	–	COC[C@@]1(C)C[C@H](NC[C@@H](O)[C@H](Cc2cc(F)cc(F)c2)NC(C)=O)c2cc(CC(C)(C)C)ccc2O1 (mixture of isomers)
22 nM	6 nM	–	–	–	CC(=O)N[C@@H](Cc1cc(F)cc(F)c1)[C@H](O)CN[C@H]1CC2(CC2)Oc2ccc(CC(C)(C)C)cc21 (mixture of isomers)
